The values that follow come from patent US10471083B2, “Formulations of aminoglycoside and fosfomycin in combination for treatment of ventilator associated pneumonia (VAP) and ventilator associated tracheal (VAT) bronchitis” (SAVARA INC., priority 2011, dated 2019).

The structures appear in SMILES notation. ≈ marks a conversion by molar mass, not a printed value.

A word on the MIC90: it is an inhibitory concentration at the 90% level, which refers to growth in some studies and to a panel of isolates in others.

Details of series [1]: species or system beagle dogs. The following applies: dog, in vivo.
Text: Toxicokinetic parameters were estimated using WinNonlin pharmacokinetic software version 5.2.1 (Pharsight Corp.). A non-compartmental approach consistent with the extravascular route of administration was used for parameter estimation. All parameters were generated from individual amikacin and fosfomycin concentrations in plasma from Days 1 and 7.
Series [2] relates to Stenotrophomonas maltophilia. The following applies: cited from earlier work.
Series [3] in a line: Aerosol particle size distribution (MMAD) in the dog study. The following applies: aerosol of the combined formulation, analytical methods. The class given is physicochemical.
The subject of series [4] is Pseudomonas. The following applies: cited from earlier work.
Series [5] deals with Pseudomonas aeruginosa. The following applies: cited from earlier work.
For series [6], the system named is MRSA. The following applies: data from the 1980's; cited from earlier work.
Series [7] deals with pseudomonas isolates. The following applies: most pseudomonas isolates; cited from earlier work.

`NCC[C@H](O)C(=O)N[C@@H]1C[C@H](N)[C@@H](O[C@H]2O[C@H](CN)[C@@H](O)[C@H](O)[C@H]2O)[C@H](O)[C@H]1O[C@H]1O[C@H](CO)[C@@H](O)[C@H](N)[C@H]1O` [amikacin]: in series [1], the “accumulation following repeat dosing” value is recorded as “no clear indication of accumulation”. Besides, the “MIC90” value was above 64 µg/mL in series [2] and 32 µg/mL (≈ 54.6 µM) in series [4]. For the same compound, the “particle size distribution (MMAD)” value in series [3] is 2.80 μm. Also, in series [5], the “factor of increase of in vitro activity of amikacin by fosfomycin” value was 64.

For `C[C@@H]1O[C@@H]1P(=O)(O)O` [fosfomycin], the “accumulation following repeat dosing” value in series [1] is reported as “no clear indication of accumulation”. For the same compound, the MIC90 in series [6] was 32 µg/mL (≈ 232 µM).

On to `NC[C@H]1O[C@H](O[C@H]2[C@H](O)[C@@H](O[C@H]3O[C@H](CO)[C@@H](O)[C@H](N)[C@H]3O)[C@H](N)C[C@@H]2N)[C@H](N)C[C@@H]1O` [tobramycin], for which the MIC90 in series [7] was 64 µg/mL (≈ 137 µM).
